In ChEMBL document CHEMBL3994622, “Design and synthesis of new RAF kinase-inhibiting antiproliferative quinoline derivatives. Part 2: Diarylurea derivatives” (Eur J Med Chem, 2017) one finds growth data, which are given here for 3 compounds.

Each structure is given as a SMILES string.

Common to all, as to assay type: functional
The test system of one experiment is EKVX. In words: Growth inhibition of human EKVX cells assessed as cell growth at 0.3 uM incubated for 48 hrs by sulforhodamine B assay relative to control. The settings on record: read-out: Activity. Background: In SRB staining, fixed cells bind dye roughly in proportion to their protein.
The test system of the next experiment is SF-268. In words: Growth inhibition of human SF268 cells assessed as cell growth at 0.005 uM incubated for 48 hrs by sulforhodamine B assay relative to control. The settings on record: SF-268, 48 h, read-out: Activity.
Experiment [1] has as its system SF-539. In words: Growth inhibition of human SF539 cells assessed as cell growth at 50 uM incubated for 48 hrs by sulforhodamine B assay relative to control. The settings on record: SF-539, 48 h, read-out: Activity.
The subject of another experiment is CAKI-1. The experiment can be described thus: Growth inhibition of human Caki1 cells assessed as cell growth at 0.05 uM incubated for 48 hrs by sulforhodamine B assay relative to control. The settings on record: CAKI-1, 48 h, read-out: Activity.
The test system of another experiment is MDA-MB-231. In words: Growth inhibition of human MDA-MB-231 cells assessed as cell growth at 50 uM incubated for 48 hrs by sulforhodamine B assay relative to control. The settings on record: MDA-MB-231, 48 h, read-out: Activity.
The next experiment relates to K562. The experiment can be described thus: Growth inhibition of human K562 cells assessed as cell growth at 50 uM incubated for 48 hrs by sulforhodamine B assay relative to control. The settings on record: K562, 48 h, read-out: Activity.
The subject of a further experiment is NCI-H322M. The experiment can be described thus: Growth inhibition of human NCI-H322M cells assessed as cell growth at 0.05 uM incubated for 48 hrs by sulforhodamine B assay relative to control. The settings on record: read-out: Activity.
The next experiment has as its system HT-29. In words: Growth inhibition of human HT-29 cells assessed as cell growth at 50 uM incubated for 48 hrs by sulforhodamine B assay relative to control. The settings on record: HT-29, 48 h, read-out: Activity.
Experiment [2] relates to LOX IMVI. In words: Growth inhibition of human LOXIMVI cells assessed as cell growth at 50 uM incubated for 48 hrs by sulforhodamine B assay relative to control. The settings on record: read-out: Activity.
A further experiment has as its system SN12C. In words: Growth inhibition of human SN12C cells assessed as cell growth at 50 uM incubated for 48 hrs by sulforhodamine B assay relative to control. The settings on record: read-out: Activity.
The subject of experiment [3] is UACC-62. In words: Growth inhibition of human UACC62 cells assessed as cell growth at 0.005 uM incubated for 48 hrs by sulforhodamine B assay relative to control. The settings on record: UACC-62, 48 h, read-out: Activity.
In the next experiment the test system is 786-0. The experiment can be described thus: Growth inhibition of human 786-0 cells assessed as cell growth at 5 uM incubated for 48 hrs by sulforhodamine B assay relative to control. The settings on record: 786-0, 48 h, read-out: Activity.
Experiment [4] has as its system UACC-62. The experiment can be described thus: Growth inhibition of human UACC62 cells assessed as cell growth at 0.5 uM incubated for 48 hrs by sulforhodamine B assay relative to control. The settings on record: UACC-62, 48 h, read-out: Activity.
Experiment [5] concerns OVCAR-3. In words: Growth inhibition of human OVCAR3 cells assessed as cell growth at 50 uM incubated for 48 hrs by sulforhodamine B assay relative to control. The settings on record: OVCAR-3, 48 h, read-out: Activity.
A further experiment relates to NCI/ADR-RES. The experiment can be described thus: Growth inhibition of human NCI/ADR-RES cells assessed as cell growth at 0.5 uM incubated for 48 hrs by sulforhodamine B assay relative to control. The settings on record: read-out: Activity.
For experiment [6], the system named is LOX IMVI. In words: Growth inhibition of human LOXIMVI cells assessed as cell growth at 5 uM incubated for 48 hrs by sulforhodamine B assay relative to control. The settings on record: read-out: Activity.
Experiment [7] has as its system LOX IMVI. The experiment can be described thus: Growth inhibition of human LOXIMVI cells assessed as cell growth at 0.05 uM incubated for 48 hrs by sulforhodamine B assay relative to control. The settings on record: read-out: Activity.
The test system of experiment [8] is SNB-19. The experiment can be described thus: Growth inhibition of human SNB19 cells assessed as cell growth at 0.005 uM incubated for 48 hrs by sulforhodamine B assay relative to control. The settings on record: SNB-19, 48 h, read-out: Activity.
A further experiment deals with RXF 393. The experiment can be described thus: Growth inhibition of human RXF393 cells assessed as cell growth at 0.005 uM incubated for 48 hrs by sulforhodamine B assay relative to control. The settings on record: RXF 393, 48 h, read-out: Activity.
The test system of another experiment is NCI-H522. The experiment can be described thus: Growth inhibition of human NCI-H522 cells assessed as cell growth at 0.05 uM incubated for 48 hrs by sulforhodamine B assay relative to control. The settings on record: NCI-H522, 48 h, read-out: Activity.
The subject of experiment [9] is UACC-62. In words: Growth inhibition of human UACC62 cells assessed as cell growth at 0.05 uM incubated for 48 hrs by sulforhodamine B assay relative to control. The settings on record: UACC-62, 48 h, read-out: Activity.
The next experiment relates to NCI-H23. In words: Growth inhibition of human NCI-H23 cells assessed as cell growth at 0.005 uM incubated for 48 hrs by sulforhodamine B assay relative to control. The settings on record: NCI-H23, 48 h, read-out: Activity.
A further experiment relates to SR. The experiment can be described thus: Growth inhibition of human SR cells assessed as cell growth at 0.5 uM incubated for 48 hrs by sulforhodamine B assay relative to control. The settings on record: read-out: Activity.
For another experiment, the system named is KM12. In words: Growth inhibition of human KM12 cells assessed as cell growth at 0.005 uM incubated for 48 hrs by sulforhodamine B assay relative to control. The settings on record: KM12, 48 h, read-out: Activity.
The subject of the next experiment is A549. In words: Growth inhibition of human A549/ATCC cells assessed as cell growth at 50 uM incubated for 48 hrs by sulforhodamine B assay relative to control. The settings on record: A549, 48 h, read-out: Activity.
Another experiment deals with M14. The experiment can be described thus: Growth inhibition of human M14 cells assessed as cell growth at 0.05 uM incubated for 48 hrs by sulforhodamine B assay relative to control. The settings on record: M14, 48 h, read-out: Activity.
The test system of experiment [10] is OVCAR-3. The experiment can be described thus: Growth inhibition of human OVCAR3 cells assessed as cell growth at 0.005 uM incubated for 48 hrs by sulforhodamine B assay relative to control. The settings on record: OVCAR-3, 48 h, read-out: Activity.
Experiment [11] concerns SNB-19. The experiment can be described thus: Growth inhibition of human SNB19 cells assessed as cell growth at 50 uM incubated for 48 hrs by sulforhodamine B assay relative to control. The settings on record: SNB-19, 48 h, read-out: Activity.
For a further experiment, the system named is NCI-H460. In words: Growth inhibition of human NCI-H460 cells assessed as cell growth at 0.5 uM incubated for 48 hrs by sulforhodamine B assay relative to control. The settings on record: NCI-H460, 48 h, read-out: Activity.
For experiment [12], the system named is SF-539. The experiment can be described thus: Growth inhibition of human SF539 cells assessed as cell growth at 0.05 uM incubated for 48 hrs by sulforhodamine B assay relative to control. The settings on record: SF-539, 48 h, read-out: Activity.
Another experiment deals with SNB-75. In words: Growth inhibition of human SNB75 cells assessed as cell growth at 5 uM incubated for 48 hrs by sulforhodamine B assay relative to control. The settings on record: SNB-75, 48 h, read-out: Activity.
A further experiment relates to HCC 2998. The experiment can be described thus: Growth inhibition of human HCC2998 cells assessed as cell growth at 0.5 uM incubated for 48 hrs by sulforhodamine B assay relative to control. The settings on record: HCC 2998, 48 h, read-out: Activity.
For the next experiment, the system named is HCT-15. In words: Growth inhibition of human HCT15 cells assessed as cell growth at 100 uM incubated for 48 hrs by sulforhodamine B assay relative to control. The settings on record: HCT-15, 48 h, read-out: Activity.
The next experiment relates to MDA-MB-468. In words: Growth inhibition of human MDA-MB-468 cells assessed as cell growth at 1 uM incubated for 48 hrs by sulforhodamine B assay relative to control. The settings on record: MDA-MB-468, 48 h, read-out: Activity.

`COc1cc2cc(Oc3ccc(NC(=O)Nc4ccc(Cl)c(C(F)(F)F)c4)cc3)c(C)nc2cc1OC`: in the experiment on EKVX, the growth at 0.3 µM was 94%.
Regarding `COc1cc2cc(Oc3ccc(NC(=O)Nc4cccc(C(F)(F)F)c4)cc3)c(C)nc2cc1OC`, the growth at 0.005 µM in the experiment with SF-268 was determined as 90%; with UACC-62 [3], 93%; in the experiment on SNB-19 [8] it was 92%; with RXF 393 it was 94%; in the experiment on NCI-H23, 96%; in the experiment on KM12, 90%. Besides, the growth at 0.005 µM in the experiment with OVCAR-3 [10] was found to be 101%. The growth at 50 µM with SF-539 [1] is -82%; in the experiment with MDA-MB-231, -82%; in the experiment with K562, -16%; with HT-29, -99%; in the experiment with LOX IMVI [2], -99%; with SN12C, -21%. For the same compound, the growth at 50 µM in the experiment on OVCAR-3 [5] is -57%; in the experiment with A549, -72%; in the experiment on SNB-19 [11], -26%. The growth at 0.05 µM was found to be 93% in the experiment on CAKI-1; 96% with NCI-H322M; 96% in the experiment with LOX IMVI [7]; 92% in the experiment with NCI-H522; 94% with UACC-62 [9]; 84% in the experiment on M14. Also, the growth at 0.05 µM with SF-539 [12] amounted to 96%. Moreover, the growth at 5 µM came to 12% in the experiment with 786-0, 14% in the experiment on LOX IMVI [6] and 5% with SNB-75. Moreover, the growth at 0.5 µM stood at 86% with UACC-62 [4]; 95% in the experiment on NCI/ADR-RES; 91% with SR; 96% with NCI-H460; 109% in the experiment with HCC 2998.
In the case of `COc1cc2cc(Oc3ccc(NC(=O)Nc4cc(C(F)(F)F)cc(C(F)(F)F)c4)cc3)c(C)nc2cc1OC`, the growth at 100 µM in the experiment on HCT-15 was -88%. Also, the growth at 1 µM with MDA-MB-468 was 53%.
